The target of assay [1] is Mast/stem cell growth factor receptor Kit (Homo sapiens) (UniProt P10721). Particulars: dose 10.0 nM.
Description: Inhibition of human c-KIT at 10 nM using poly[Glu:Tyr] (4:1) as substrate in presence of [gamma-33P]-ATP by radiometric assay relative to control
Assay [2] shares this target. Particulars: dose 100.0 nM.
Description: Inhibition of human c-KIT at 100 nM using poly[Glu:Tyr] (4:1) as substrate in presence of [gamma-33P]-ATP by radiometric assay relative to control
Assay [3] deals with Receptor-type tyrosine-protein kinase FLT3 (Homo sapiens) (UniProt P36888). To be noted: dose 10.0 nM.
Assay [4] addresses Macrophage colony-stimulating factor 1 receptor (Homo sapiens) (UniProt P07333). To be noted: dose 10.0 nM.
Description: Inhibition of human CSF1R at 10 nM using poly[Glu:Tyr] (4:1) as substrate in presence of [gamma-33P]-ATP by radiometric assay relative to control
In assay [5] the target is Receptor-type tyrosine-protein kinase FLT3 (Homo sapiens) (UniProt P36888). Particulars: dose 100.0 nM.
Assay [6] deals with Macrophage colony-stimulating factor 1 receptor (Homo sapiens) (UniProt P07333). To be noted: dose 100.0 nM.
Chain of Macrophage colony-stimulating factor 1 receptor (Homo sapiens) (P07333 whole entry): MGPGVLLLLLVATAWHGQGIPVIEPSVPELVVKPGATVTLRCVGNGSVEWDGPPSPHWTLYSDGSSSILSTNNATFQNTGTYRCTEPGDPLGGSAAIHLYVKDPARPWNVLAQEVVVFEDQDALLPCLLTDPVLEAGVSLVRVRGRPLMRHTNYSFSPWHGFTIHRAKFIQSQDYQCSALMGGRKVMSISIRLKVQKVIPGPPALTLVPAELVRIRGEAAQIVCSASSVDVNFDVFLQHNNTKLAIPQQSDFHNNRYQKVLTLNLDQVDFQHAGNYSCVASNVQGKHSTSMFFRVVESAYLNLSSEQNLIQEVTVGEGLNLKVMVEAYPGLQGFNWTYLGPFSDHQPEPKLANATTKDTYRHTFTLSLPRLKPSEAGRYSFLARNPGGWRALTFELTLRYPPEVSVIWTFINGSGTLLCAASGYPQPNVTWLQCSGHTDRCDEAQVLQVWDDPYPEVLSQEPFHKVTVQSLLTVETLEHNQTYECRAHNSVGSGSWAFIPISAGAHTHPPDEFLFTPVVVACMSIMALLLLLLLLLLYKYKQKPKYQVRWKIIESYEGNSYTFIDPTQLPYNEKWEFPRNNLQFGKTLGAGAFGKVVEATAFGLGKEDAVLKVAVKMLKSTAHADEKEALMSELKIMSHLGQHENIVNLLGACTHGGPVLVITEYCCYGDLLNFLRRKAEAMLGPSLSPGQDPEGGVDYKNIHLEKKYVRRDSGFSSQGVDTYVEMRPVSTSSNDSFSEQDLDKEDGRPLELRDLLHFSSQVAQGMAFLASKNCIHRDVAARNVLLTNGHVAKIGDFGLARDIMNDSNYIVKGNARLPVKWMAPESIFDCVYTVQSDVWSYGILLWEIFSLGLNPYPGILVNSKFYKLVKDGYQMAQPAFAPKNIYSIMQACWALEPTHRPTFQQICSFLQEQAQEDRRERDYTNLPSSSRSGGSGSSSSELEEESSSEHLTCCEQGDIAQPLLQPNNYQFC
Description: Inhibition of human CSF1R at 100 nM using poly[Glu:Tyr] (4:1) as substrate in presence of [gamma-33P]-ATP by radiometric assay relative to control
Assay [7] deals with T1, Macrophage colony-stimulating factor 1 receptor (Mus musculus) (UniProt P09581).
T1 sequence (whole entry): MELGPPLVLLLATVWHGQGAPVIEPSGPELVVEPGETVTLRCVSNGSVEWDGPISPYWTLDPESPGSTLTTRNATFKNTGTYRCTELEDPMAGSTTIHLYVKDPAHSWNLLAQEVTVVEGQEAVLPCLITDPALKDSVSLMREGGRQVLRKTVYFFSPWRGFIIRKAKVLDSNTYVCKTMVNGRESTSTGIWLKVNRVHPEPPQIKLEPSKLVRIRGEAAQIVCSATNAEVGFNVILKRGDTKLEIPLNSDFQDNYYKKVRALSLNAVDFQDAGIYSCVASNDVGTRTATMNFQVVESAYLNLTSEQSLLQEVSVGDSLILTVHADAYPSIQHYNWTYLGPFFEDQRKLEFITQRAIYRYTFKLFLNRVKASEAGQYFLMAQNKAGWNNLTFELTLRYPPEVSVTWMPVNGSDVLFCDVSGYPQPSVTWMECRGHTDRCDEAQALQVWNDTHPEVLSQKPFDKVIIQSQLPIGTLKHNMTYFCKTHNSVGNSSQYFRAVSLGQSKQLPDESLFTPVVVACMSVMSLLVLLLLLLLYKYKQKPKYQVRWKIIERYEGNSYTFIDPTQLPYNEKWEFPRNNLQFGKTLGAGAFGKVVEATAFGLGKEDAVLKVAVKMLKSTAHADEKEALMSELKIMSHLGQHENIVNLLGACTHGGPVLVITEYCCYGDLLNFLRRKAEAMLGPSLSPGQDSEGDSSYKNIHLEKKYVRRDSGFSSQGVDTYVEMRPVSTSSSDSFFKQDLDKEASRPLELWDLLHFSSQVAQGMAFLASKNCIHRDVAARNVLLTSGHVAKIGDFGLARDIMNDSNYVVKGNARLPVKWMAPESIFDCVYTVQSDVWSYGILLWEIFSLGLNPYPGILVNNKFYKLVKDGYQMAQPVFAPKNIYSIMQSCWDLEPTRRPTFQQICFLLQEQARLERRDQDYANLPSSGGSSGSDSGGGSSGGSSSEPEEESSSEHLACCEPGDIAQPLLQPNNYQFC
Put plainly: Inhibition of CSF1R phosphorylation in mouse RAW 264.7 cells at 10 to 100 nM preincubated for 5 hrs followed by CSF stimulation for 10 mins by Western blot analysis. The class given is cell-based. Particulars: RAW264.7, dose 10-100 nM, time 310.0 min.

Calls of active or inactive are those of the source. No cut-off for these calls is given here.

Chain of Mast/stem cell growth factor receptor Kit (Homo sapiens) (P10721 whole entry): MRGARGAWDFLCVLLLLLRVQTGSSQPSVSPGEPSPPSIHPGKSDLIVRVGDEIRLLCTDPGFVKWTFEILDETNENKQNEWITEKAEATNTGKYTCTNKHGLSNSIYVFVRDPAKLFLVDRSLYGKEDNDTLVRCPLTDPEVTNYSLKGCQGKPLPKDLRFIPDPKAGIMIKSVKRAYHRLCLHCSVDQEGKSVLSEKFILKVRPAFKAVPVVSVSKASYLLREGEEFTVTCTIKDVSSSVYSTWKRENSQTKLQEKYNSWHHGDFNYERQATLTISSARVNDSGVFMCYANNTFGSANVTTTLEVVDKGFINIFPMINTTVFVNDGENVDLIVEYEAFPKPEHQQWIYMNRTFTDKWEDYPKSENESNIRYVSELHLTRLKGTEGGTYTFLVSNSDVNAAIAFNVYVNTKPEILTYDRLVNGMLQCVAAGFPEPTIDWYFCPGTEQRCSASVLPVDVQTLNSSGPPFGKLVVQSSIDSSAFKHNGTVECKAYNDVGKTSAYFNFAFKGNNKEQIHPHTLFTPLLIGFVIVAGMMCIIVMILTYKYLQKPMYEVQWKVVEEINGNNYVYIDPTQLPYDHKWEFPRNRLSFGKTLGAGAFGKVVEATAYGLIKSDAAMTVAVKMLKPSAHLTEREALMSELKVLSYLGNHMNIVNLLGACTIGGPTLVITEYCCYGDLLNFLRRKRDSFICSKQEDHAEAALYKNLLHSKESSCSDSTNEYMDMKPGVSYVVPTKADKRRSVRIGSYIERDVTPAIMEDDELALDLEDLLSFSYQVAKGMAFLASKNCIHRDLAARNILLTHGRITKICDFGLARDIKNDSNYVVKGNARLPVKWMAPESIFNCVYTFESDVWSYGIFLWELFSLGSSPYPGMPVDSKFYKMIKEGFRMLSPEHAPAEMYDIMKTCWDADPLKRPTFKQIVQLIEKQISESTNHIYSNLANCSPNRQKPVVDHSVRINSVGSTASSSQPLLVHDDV
Chain of Receptor-type tyrosine-protein kinase FLT3 (Homo sapiens) (P36888 whole entry): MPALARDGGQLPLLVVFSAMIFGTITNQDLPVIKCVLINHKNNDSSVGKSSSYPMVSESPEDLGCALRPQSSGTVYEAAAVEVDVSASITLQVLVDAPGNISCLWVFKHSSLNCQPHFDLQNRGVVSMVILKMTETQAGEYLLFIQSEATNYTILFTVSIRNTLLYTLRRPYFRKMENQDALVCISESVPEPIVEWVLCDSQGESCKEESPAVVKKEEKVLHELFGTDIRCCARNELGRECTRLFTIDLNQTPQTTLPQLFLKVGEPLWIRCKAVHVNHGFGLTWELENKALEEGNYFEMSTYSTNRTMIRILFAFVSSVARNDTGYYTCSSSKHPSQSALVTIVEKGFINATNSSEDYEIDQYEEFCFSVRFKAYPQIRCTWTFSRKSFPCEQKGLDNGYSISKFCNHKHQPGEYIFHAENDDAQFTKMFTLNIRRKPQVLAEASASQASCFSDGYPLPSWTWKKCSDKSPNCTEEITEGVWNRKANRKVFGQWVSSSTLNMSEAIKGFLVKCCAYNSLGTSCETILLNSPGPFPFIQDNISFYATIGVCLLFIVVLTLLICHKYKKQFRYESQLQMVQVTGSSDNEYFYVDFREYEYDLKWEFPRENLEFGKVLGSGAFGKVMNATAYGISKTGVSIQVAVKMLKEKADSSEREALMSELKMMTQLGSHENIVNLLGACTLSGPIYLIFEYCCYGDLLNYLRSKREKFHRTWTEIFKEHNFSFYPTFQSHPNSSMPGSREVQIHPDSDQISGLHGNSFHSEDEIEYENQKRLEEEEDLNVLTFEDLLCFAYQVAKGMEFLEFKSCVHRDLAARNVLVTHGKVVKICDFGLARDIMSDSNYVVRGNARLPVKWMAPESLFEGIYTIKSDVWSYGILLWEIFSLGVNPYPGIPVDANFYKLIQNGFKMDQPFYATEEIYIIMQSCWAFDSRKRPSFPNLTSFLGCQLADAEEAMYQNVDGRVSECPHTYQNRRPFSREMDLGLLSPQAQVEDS

Consider `CCN1CCN(Cc2ccc(C(=O)Nc3ccc(C)c(NC(=O)c4cc[nH]n4)c3)cc2C(F)(F)F)CC1`, for which the figures for the inhibition in assay [1] and in assay [2] were 0% and 17%, respectively.
With `CNC(=O)c1cc(Oc2ccc3nc(N[C@H]4CCCC[C@H]4O)sc3c2)ccn1`, the inhibition in assay [3] worked out at 19%; in assay [4], 76%; in assay [1] it was 2%; in assay [2], 2%; in assay [5], 20%; in assay [6], 94%.
For `CCN1CCN(Cc2ccc(C(=O)Nc3ccc(C)c(NC(=O)c4ncc[nH]4)c3)cc2C(F)(F)F)CC1`, the values for the inhibition in assay [1] and in assay [2] were 31% and 81%, respectively.
On to `Cc1ccc(NCc2ccc(C(F)(F)F)nc2)cc1NC(=O)c1cnc2ccccn12`, for which the inhibition in assay [1] came out at 14%; in assay [2], 56%.
For `CCN1CCN(Cc2ccc(C(=O)Nc3ccc(C)c(NC(=O)c4cnc5ccccn45)c3)cc2C(F)(F)F)CC1`, in that order: 30% and 70%.
Turning to `COc1ccc(COc2ccc(Cc3cnc(N)nc3N)cc2OC)cc1`, the inhibition in assay [3] was 4%; in assay [1] it was 4%; in assay [2], 8%; in assay [5] it was 11%.
As for `CCN1CCN(Cc2ccc(C(=O)Nc3ccc(C)c(NC(=O)c4cnc5cccnn45)c3)cc2C(F)(F)F)CC1`, the inhibition in assay [1] worked out at 27%; in assay [2], 64%.
For `CCN1CCN(Cc2ccc(C(=O)Nc3ccc(C)c(NC(=O)c4ccn(C)n4)c3)cc2C(F)(F)F)CC1`, in that order: 14% and 54%.
The like results for `CCN1CCN(Cc2ccc(C(=O)Nc3ccc(C)c(NC(=O)c4cnnc5ccccc45)c3)cc2C(F)(F)F)CC1` were, in that order, 10% and 40%.
The like results for `Cc1ccc(NC(=O)c2ccc(C(F)(F)F)nc2)cc1NC(=O)c1cnc2cccnn12` were, in that order, 4% and 32%.
Regarding `Cc1cn(-c2cc(NC(=O)c3ccc(C)c(NC(=O)c4cnc5ccccn45)c3)cc(C(F)(F)F)c2)cn1`, the inhibition was 0% in assay [1] and 33% in assay [2].
The like results for `CCN1CCN(Cc2ccc(C(=O)Nc3ccc(C)c(NC(=O)c4cnn5ccccc45)c3)cc2C(F)(F)F)CC1` were, in that order, 27% and 73%.
For `CCN1CCN(Cc2ccc(C(=O)Nc3ccc(C)c(NC(=O)c4cnc5ncccn45)c3)cc2C(F)(F)F)CC1`, in that order: 10% and 49%.
For `CCN1CCN(Cc2ccc(C(=O)Nc3ccc(C)c(NCc4cnc5ccc(OC)nn45)c3)cc2C(F)(F)F)CC1`, in that order: 25% and 63%.
On to `Cc1cn(-c2cc(NC(=O)c3ccc(C)c(Nc4nccc(-c5cccnc5)n4)c3)cc(C(F)(F)F)c2)cn1`, for which the inhibition in assay [3] worked out at 0%; in assay [4], 14%; in assay [1], 2%; in assay [2], 33%; in assay [5], 4%.
For the molecule `CCN1CCN(Cc2ccc(C(=O)Nc3ccc(C)c(NC(=O)c4c[nH]cn4)c3)cc2C(F)(F)F)CC1`, the figures for the inhibition in assay [1] and in assay [2] were 41% and 89%, respectively.
For the molecule `Cc1ccc(NC(=O)c2ccc(C(F)(F)F)nc2)cc1NC(=O)c1cnn2ccccc12`, the inhibition in assay [1] turned out to be 30%; in assay [2], 53%. In addition, the inhibition entry in assay [7] was “Active”.
Take `FC(F)(F)c1ccc(CNc2ccc(Cc3c[nH]c4ncc(Cl)cc34)cn2)cn1`: the inhibition stood at 1% in assay [3], 13% in assay [1], 51% in assay [2] and 11% in assay [5].
As to `CCN1CCN(Cc2ccc(C(=O)Nc3ccc(C)c(NC(=O)c4n[nH]c5ncccc45)c3)cc2C(F)(F)F)CC1`, the inhibition in assay [1] was found to be 96%; in assay [2], 98%.
Consider `CCN1CCN(Cc2ccc(C(=O)Nc3ccc(C)c(NCc4cnc5cccnn45)c3)cc2C(F)(F)F)CC1`, for which the inhibition in assay [1] is 22%; in assay [2] it was 49%.
The like results for `CCN1CCN(Cc2ccc(NC(=O)c3ccc(C)c(NC(=O)c4cnc5cccnn45)c3)cc2C(F)(F)F)CC1` were, in that order, 96% and 98%.
Regarding `CCN1CCN(Cc2ccc(C(=O)Nc3ccc(C)c(NC(=O)c4n[nH]c5ccccc45)c3)cc2C(F)(F)F)CC1`, the inhibition amounted to 43% in assay [1] and 89% in assay [2].
Regarding `Cc1ccc(NCc2ccc(C(F)(F)F)nc2)cc1NC(=O)c1cnc2cccnn12`, the inhibition in assay [1] was found to be 6%; in assay [2], 25%.
In the case of `Cc1cn(-c2cc(NC(=O)c3ccc(C)c(NC(=O)c4cnc5cccnn45)c3)cc(C(F)(F)F)c2)cn1`, the results for the inhibition in assay [1] and in assay [2] were 7% and 50%, respectively.
For `Cc1ccc(NCc2ccc(C(F)(F)F)nc2)cc1NC(=O)c1cnn2ccccc12`, in that order: 17% and 45%.

(Values after ChEMBL document CHEMBL4813977, “Discovery of potent colony-stimulating factor 1 receptor inhibitors by replacement of hinge-binder moieties” (Eur J Med Chem, 2021).)
